Reference: ChEMBL document CHEMBL1157443, “Synthesis and in vitro anti-hepatitis B virus activities of 4-aryl-6-chloro-quinolin-2-one and 5-aryl-7-chloro-1,4-benzodiazepine derivatives” (Bioorg Med Chem Lett, 2008)

Tests used:
Hepatitis B virus [1] = assay: Antiviral activity against hepatitis B virus infected Hep G2.2.15 cells assessed as inhibition of HBsAg secretion; type: functional, organism-based; conditions: HepG2 2.2.15
[2] = Cytotoxicity against human Hep G2.2.15 cells; type: cell-based, HepG2 2.2.15
[3] = Selectivity index, ratio of CC50 for human Hep G2.2.15 cells to IC50 for HBV surface antigen secretion; type: functional
[4] = Selectivity index, ratio of CC50 for human Hep G2.2.15 cells to IC50 for HBV e antigen secretion; type: functional
Hepatitis B virus [5] = assay: Antiviral activity against hepatitis B virus infected Hep G2.2.15 cells assessed as inhibition of HBeAg secretion; type: functional, organism-based; conditions: HepG2 2.2.15

Structure (SMILES)	IC50 (Hepatitis B virus [1])	CC50 [2]	Ratio CC50/IC50 [3]	Ratio CC50/IC50 [4]	IC50 (Hepatitis B virus [5])
CC(=O)OC1N=C(c2ccccc2)c2cc(Cl)ccc2NC1=O (stereo not given)	292 µM	678 µM	2.3	<1	> 4260 µM
CC(=O)Nc1c(-c2ccccc2F)c2cc(Cl)ccc2[nH]c1=O	141 µM	44 µM	<1	<1	79 µM
O=c1cc(-c2ccccc2)c2cc(Cl)ccc2[nH]1	485 µM	1250 µM	2.6	<1	> 4140 µM
O=c1[nH]c2ccc(Cl)cc2c(-c2ccccc2F)c1CCO	187 µM	> 2990 µM	>16	>5.5	545 µM
O=c1[nH]c2ccc(Cl)cc2c(-c2ccccc2Cl)c1CCO	74 µM	1720 µM	23	3.4	449 µM
O=c1cc(-c2ccccc2Cl)c2cc(Cl)ccc2[nH]1	752 µM	6000 µM	8	<1	> 6000 µM
O=c1cc(-c2ccccc2F)c2cc(Cl)ccc2[nH]1	2840 µM	> 5460 µM	>1.9	>2.4	2220 µM
CC(=O)OC1N=C(c2ccccc2F)c2cc(Cl)ccc2NC1=O (stereo not given)	160 µM	344 µM	2.2	<1	1220 µM
Nc1c(-c2ccccc2)c2cc(Cl)ccc2[nH]c1=O	67 µM	399 µM	6	<1	> 3990 µM
Nc1c(-c2ccccc2F)c2cc(Cl)ccc2[nH]c1=O	56 µM	767 µM	14	<1	> 3610 µM
CC(=O)Nc1c(-c2ccccc2)c2cc(Cl)ccc2[nH]c1=O	208 µM	239 µM	1.1	<1	1870 µM
Nc1c(-c2ccccc2Cl)c2cc(Cl)ccc2[nH]c1=O	341 µM	341 µM	1	<1	> 5470 µM
O=C1CN2OC2(c2ccccc2)c2cc(Cl)ccc2N1 (stereo not given)	728 µM	946 µM	1.3	<1	> 3280 µM
O=C1CN2OC2(c2ccccc2F)c2cc(Cl)ccc2N1 (stereo not given)	195 µM	346 µM	1.8	<1	> 3260 µM
CC(=O)OC1N=C(c2ccccc2Cl)c2cc(Cl)ccc2NC1=O (stereo not given)	167 µM	154 µM	<1	<1	1940 µM
O=c1[nH]c2ccc(Cl)cc2c(-c2ccccc2)c1CCO	300 µM	> 4910 µM	>16	>5.2	950 µM
CC(=O)Nc1c(-c2ccccc2Cl)c2cc(Cl)ccc2[nH]c1=O	129 µM	208 µM	1.6	2.6	80 µM
O=C1CN2OC2(c2ccccc2Cl)c2cc(Cl)ccc2N1 (stereo not given)	355 µM	302 µM	<1	<1	4490 µM
O=C1CN=C(c2ccccc2F)c2cc(Cl)ccc2N1	294 µM	183 µM	<1	<1	5360 µM
O=C1CN=C(c2ccccc2Cl)c2cc(Cl)ccc2N1 [DELORAZEPAM]	76 µM	76 µM	<1	<1	4080 µM
Nc1ccn([C@@H]2CS[C@H](CO)O2)c(=O)n1 [LAMIVUDINE]	–	30000 µM	2.6	1.2	–
O=C1CN=C(c2ccccc2)c2cc(Cl)ccc2N1 [NORDAZEPAM]	255 µM	–	–	–	835 µM
